In ChEMBL document CHEMBL1201862, “PubChem BioAssay data set” (2004):
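All cell lines were grown in 96-well plates and treated with compound for 48 hours. GI50: concentration for 50% inhibition of growth.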 Active and inactive are the calls of the source. Cut-off read from the data, not from the text of the source: active = GI50 up to about 1.1 µM and inactive = higher.

Tests used:
Experiment in all cases: NCI-60 cell line screen, 48 h
MOLT-4 = test system: MOLT-4
SK-OV-3 = test system: SK-OV-3
MCF7 = test system: MCF7
SNB-19 = test system: SNB-19
SR = test system: SR
SNB-75 = test system: SNB-75
HOP-62 = test system: HOP-62
786-0 = test system: 786-0
M14 = test system: M14
OVCAR-8 = test system: OVCAR-8
Malme-3M = test system: Malme-3M
LOX IMVI = test system: LOX IMVI
UACC-62 = test system: UACC-62
SK-MEL-5 = test system: SK-MEL-5
SK-MEL-2 = test system: SK-MEL-2
NCI-H522 = test system: NCI-H522
HT-29 = test system: HT-29
EKVX = test system: EKVX
OVCAR-4 = test system: OVCAR-4
A498 = test system: A498

Row | Structure (SMILES) | GI50 (MOLT-4) | GI50 (SK-OV-3) | GI50 (MCF7) | GI50 (SNB-19) | GI50 (SR) | GI50 (SNB-75) | GI50 (HOP-62) | GI50 (786-0) | GI50 (M14) | GI50 (OVCAR-8) | GI50 (Malme-3M) | GI50 (LOX IMVI) | GI50 (UACC-62) | GI50 (SK-MEL-5) | GI50 (SK-MEL-2) | GI50 (NCI-H522) | GI50 (HT-29) | GI50 (EKVX) | GI50 (OVCAR-4) | GI50 (A498)
1 | O=C(CN1CCCCC1)Nc1ccc2sc3ccccc3c(=O)c2n1 | 2.69 µM (inactive) | 21.3 µM (inactive) | 19.5 µM (inactive) | 19.9 µM (inactive) | 21.5 µM (inactive) | 15.2 µM (inactive) | 13.8 µM (inactive) | 12.9 µM (inactive) | 17.9 µM (inactive) | 13.7 µM (inactive) | 32.1 µM (inactive) | 7.01 µM (inactive) | 15.4 µM (inactive) | 15.8 µM (inactive) | 18.6 µM (inactive) | 6.44 µM (inactive) | 30.3 µM (inactive) | 22.7 µM (inactive) | 30.1 µM (inactive) | 
2 | Nc1ccc(S(=O)(=O)Nc2nc3ccccc3nc2N2CCCCCC2)cc1 | 16 µM (inactive) | 33.6 µM (inactive) | 38.9 µM (inactive) | 32.7 µM (inactive) | 12.5 µM (inactive) | 50.8 µM (inactive) | 20 µM (inactive) | 30.2 µM (inactive) | 37.2 µM (inactive) | 31.9 µM (inactive) | 34.4 µM (inactive) | 17.3 µM (inactive) | 18.1 µM (inactive) | 16.1 µM (inactive) | 20 µM (inactive) | 29 µM (inactive) | 33.3 µM (inactive) | 40.3 µM (inactive) | 17.1 µM (inactive) | 
3 | CCOc1c(OC)cc(CNNc2nccs2)cc1OC | 28.6 µM (inactive) |  | > 100 µM (inactive) | > 100 µM (inactive) | 29.5 µM (inactive) | 34.8 µM (inactive) | > 100 µM (inactive) | > 100 µM (inactive) | 42.1 µM (inactive) | > 100 µM (inactive) | 82.2 µM (inactive) | 47.2 µM (inactive) |  | 12.9 µM (inactive) |  | 52.6 µM (inactive) | > 100 µM (inactive) | 19.3 µM (inactive) | > 100 µM (inactive) | > 100 µM (inactive)
4 | COc1ccc(/C=N/NC(=O)c2ccccc2Nc2ccccc2C(=O)N/N=C/c2ccc(OC)cc2)cc1 | > 100 µM (inactive) | > 100 µM (inactive) | > 100 µM (inactive) | > 100 µM (inactive) | > 100 µM (inactive) | > 100 µM (inactive) | > 100 µM (inactive) | > 100 µM (inactive) | > 100 µM (inactive) | > 100 µM (inactive) | > 100 µM (inactive) | > 100 µM (inactive) | > 100 µM (inactive) | > 100 µM (inactive) | > 100 µM (inactive) |  | > 100 µM (inactive) | > 100 µM (inactive) | > 100 µM (inactive) | > 100 µM (inactive)
5 | CC(C)[Si](OC1=C(C(=O)N(C)c2cccc(Cl)c2)CCCC1)(C(C)C)C(C)C | 10.4 µM (inactive) | 16.6 µM (inactive) | 12.3 µM (inactive) | 16.6 µM (inactive) | 9.16 µM (inactive) | 10.4 µM (inactive) | 17.6 µM (inactive) | 18.3 µM (inactive) | 15.1 µM (inactive) | 16.8 µM (inactive) | 11.7 µM (inactive) | 17.3 µM (inactive) | 14.7 µM (inactive) | 14.1 µM (inactive) | 15.5 µM (inactive) |  | 15.3 µM (inactive) | 15.6 µM (inactive) | 12.7 µM (inactive) | 16.9 µM (inactive)
6 | N#Cc1cnn2ccn(C3OC(COC(=O)c4ccccc4)C(OC(=O)c4ccccc4)C3OC(=O)c3ccccc3)c12 (centres undefined) | > 21.5 µM (inactive) | > 21.5 µM (inactive) | > 46.5 µM (inactive) | > 21.5 µM (inactive) | > 31.6 µM (inactive) | 1 µM (active) | > 21.5 µM (inactive) | > 21.5 µM (inactive) | > 21.5 µM (inactive) | > 46.5 µM (inactive) | > 21.5 µM (inactive) | > 31.6 µM (inactive) | > 21.5 µM (inactive) | > 21.5 µM (inactive) |  | > 21.5 µM (inactive) | > 21.5 µM (inactive) | > 21.5 µM (inactive) | > 21.5 µM (inactive) | 20.5 µM (inactive)
7 | O=C1c2ccccc2-c2ccc(O)cc21 | 16.1 µM (inactive) |  | 21.2 µM (inactive) | 23.9 µM (inactive) | 12 µM (inactive) | 29 µM (inactive) | 36.4 µM (inactive) | 36.1 µM (inactive) | 26.1 µM (inactive) | 20.2 µM (inactive) | 23.4 µM (inactive) | 40.1 µM (inactive) | 15.3 µM (inactive) | 19.4 µM (inactive) | 21.5 µM (inactive) | 16.1 µM (inactive) | 30.7 µM (inactive) | 16.4 µM (inactive) | 20.7 µM (inactive) | 21.5 µM (inactive)
8 | O=C1CC(c2ccsc2)n2cccc21 (centres undefined) | > 10 µM (inactive) | > 100 µM (inactive) | > 100 µM (inactive) | > 100 µM (inactive) | > 100 µM (inactive) | 32.1 µM (inactive) | > 100 µM (inactive) | > 100 µM (inactive) | > 100 µM (inactive) | > 100 µM (inactive) |  |  | > 100 µM (inactive) | > 100 µM (inactive) | > 100 µM (inactive) | > 100 µM (inactive) | > 100 µM (inactive) | > 100 µM (inactive) | > 100 µM (inactive) | > 100 µM (inactive)
9 | C=C(C)CCC1CC=[N+]([O-])OC1C(C)(C)C (centres undefined) | 39.2 µM (inactive) | > 100 µM (inactive) | 15.5 µM (inactive) |  | 36.3 µM (inactive) | 31.3 µM (inactive) | 79.3 µM (inactive) | 96.4 µM (inactive) | 21.1 µM (inactive) | 66.5 µM (inactive) |  | 18.5 µM (inactive) | 36.3 µM (inactive) | 32.5 µM (inactive) |  | 24.2 µM (inactive) | 44.5 µM (inactive) | 68.2 µM (inactive) |  | > 100 µM (inactive)
10 | COC(=O)CP1(=O)OC2C(C3CCC2(C)C3(C)C)N1c1cc(C(F)(F)F)cc(C(F)(F)F)c1 (centres undefined) | 16.7 µM (inactive) | 33.4 µM (inactive) | > 100 µM (inactive) | 32.7 µM (inactive) | 24.8 µM (inactive) | 15.7 µM (inactive) | 31.2 µM (inactive) | 18.2 µM (inactive) | 32.3 µM (inactive) | 36.1 µM (inactive) | 17.3 µM (inactive) | 22.4 µM (inactive) | > 100 µM (inactive) | 36.3 µM (inactive) | 20.9 µM (inactive) |  | 26.1 µM (inactive) | 30.5 µM (inactive) | 13.5 µM (inactive) | > 100 µM (inactive)
11 | Cn1cnc(N2CCCC2)c(C#N)c1=S | > 100 µM (inactive) |  | > 100 µM (inactive) | > 100 µM (inactive) | > 100 µM (inactive) |  | > 100 µM (inactive) | > 100 µM (inactive) | > 100 µM (inactive) | > 100 µM (inactive) | > 100 µM (inactive) | > 100 µM (inactive) | > 100 µM (inactive) | > 100 µM (inactive) | > 100 µM (inactive) | > 100 µM (inactive) | > 100 µM (inactive) | 94.4 µM (inactive) | > 100 µM (inactive) | > 100 µM (inactive)
12 | C=CCC1C2CCC(O[Si](C(C)C)(C(C)C)C(C)C)(C(C(=O)OC)C2)C1O (centres undefined) | 35.2 µM (inactive) | > 100 µM (inactive) | 35.4 µM (inactive) | > 100 µM (inactive) | 17.6 µM (inactive) | 71.1 µM (inactive) | > 100 µM (inactive) | 17.2 µM (inactive) | 94.8 µM (inactive) | > 100 µM (inactive) |  |  | 55.2 µM (inactive) | 53 µM (inactive) | 41.9 µM (inactive) |  | 53.7 µM (inactive) | 22.4 µM (inactive) | > 100 µM (inactive) | > 100 µM (inactive)
13 | NCCCn1c2ccccc2c2c3c(c4c(c21)CCC(O)CC4)C(=O)NC3=O (centres undefined) | 1.53 µM (inactive) |  | 0.796 µM (active) |  | 1.69 µM (inactive) |  | 2.5 µM (inactive) | 2.92 µM (inactive) | 4.48 µM (inactive) | 5.01 µM (inactive) | 2.14 µM (inactive) | 1.01 µM (active) | 4.12 µM (inactive) | 3.31 µM (inactive) | 10.4 µM (inactive) | 2.44 µM (inactive) | 0.729 µM (active) | 9.18 µM (inactive) | 1.85 µM (inactive) | 9.38 µM (inactive)
14 | Brc1ccc2c(-c3csc(-c4c[nH]c5cc(Br)ccc45)n3)c[nH]c2c1 | 12.1 µM (inactive) | 18.5 µM (inactive) | 11.8 µM (inactive) | 21.3 µM (inactive) | 5.61 µM (inactive) | 25.1 µM (inactive) | 37.2 µM (inactive) | 22 µM (inactive) | 17.7 µM (inactive) | 21 µM (inactive) | 28.4 µM (inactive) | 20.9 µM (inactive) | 40.5 µM (inactive) | 42.2 µM (inactive) | > 83 µM (inactive) |  | 15.8 µM (inactive) | 35.3 µM (inactive) | 31 µM (inactive) | 37.1 µM (inactive)
15 | CCCC(=O)Oc1cc(OC(=O)CCC)c2c(C)cc(=O)oc2c1 | 29 µM (inactive) | > 100 µM (inactive) | 54.5 µM (inactive) | > 100 µM (inactive) | 18.5 µM (inactive) | 52.4 µM (inactive) | > 100 µM (inactive) | 82.6 µM (inactive) | > 100 µM (inactive) | 75.7 µM (inactive) | 76.6 µM (inactive) | 40.1 µM (inactive) | 66.1 µM (inactive) | 67.9 µM (inactive) | > 100 µM (inactive) |  | 36.5 µM (inactive) | > 100 µM (inactive) | > 100 µM (inactive) | 46.1 µM (inactive)
